{"source": "patent US20240189311A1", "about": "“Combination Therapy of Obicetrapib and Ezetimibe for Use in Statin Intolerant Patients Suffering from Hyperlipidemia or Mixed Dyslipidaemia” (NEWAMSTERDAM PHARMA B.V., priority 2021, published 2024)", "key": {"[1]": {"conditions": "cited from earlier work; for Phase III clinical trial outcome (in words): anacetrapib: 30.000 patient REVEAL trial"}, "LDL-C": {"test_system": "LDL-C", "conditions": "cited from earlier work"}, "HDL-C": {"test_system": "HDL-C", "conditions": "cited from earlier work"}, "apolipoprotein B (ApoB)": {"test_system": "apolipoprotein B (ApoB)", "assay": "Phase 2 study of obicetrapib and ezetimibe in mild dyslipidaemia: ApoB", "type": "in vivo, human", "conditions": "mITT population, oral once daily", "text": "(§1) Study drugs will be administered by the participant orally and once daily on Days 1 through 57. Study drugs should be administered at approximately the same time each morning, with food. On days with visits scheduled, study drugs should be administered with food following all fasted blood samples. If a participant forgets to take study drug on a given day, they should take the next dose as normal and should not take a double dose to make up for the forgotten dose.\n(§2) Up to 2 weeks after the Screening Visit, participants will return to the site on Day 1 (Visit 2) to be randomized and begin treatment. Approximately 100 eligible participants (25 participants per treatment group) will be randomized in a 1:1:1:1 ratio to 1 of the following treatment groups: • Combination therapy: 5 mg obicetrapib+10 mg ezetimibe; • Obicetrapib monotherapy: 5 mg obicetrapib+placebo ezetimibe; • Ezetimibe monotherapy: placebo obicetrapib+10 mg ezetimibe; or • Placebo: placebo obicetrapib+placebo ezetimibe.\nSimilar MMRM models were developed to examine the percent change from Day 1 to Day 57 in LDL-C (for other pairwise treatment group comparisons beside the analysis specified for the primary efficacy endpoint, using the Friedewald formula) or ApoB. In order to maintain the overall Type 1 error rate, the secondary efficacy endpoints were tested sequentially at the 0.05 significance level according to the pre-specified order of hierarchy. This applied to the following analyses: • Percent change from Day 1 to Day 57 in LDL-C for the obicetrapib monotherapy group compared to the placebo group; • Percent change from Day 1 to Day 57 in ApoB for the combination therapy group compared to the placebo group; • Percent change from Day 1 to Day 57 in ApoB for the obicetrapib monotherapy group compared to the placebo group; • Percent change from Day 1 to Day 57 in LDL-C for combination therapy group compared to the ezetimibe monotherapy group; • Percent change from Day 1 to Day 57 in LDL-C for the obicetrapib monotherapy group compared to the ezetimibe monotherapy group; • Percent change from Day 1 to Day 57 in LDL-C, for the ezetimibe monotherapy group compared to the placebo group; and • Percent change from Day 1 to Day 57 in ApoB for the combination therapy group compared to the ezetimibe monotherapy group."}, "[2]": {"assay": "Phase 2 study: safety and tolerability (adverse events)", "type": "in vivo, human", "text": "The Safety Population included all participants who received at least 1 dose of any study drug. Treatment classification was based on the actual treatment received. The Safety Population was the primary population used for the safety analyses.\nThe Safety Population was the primary population for the safety analyses. All safety endpoints are summarized descriptively. No statistical inference was applied to the safety endpoints.\nAEs were categorized by primary system organ class (SOC) and preferred term (PT) as coded using the Medical Dictionary for Regulatory Activities (version 23.0) category designations. Summaries of AEs, including the count and percentage of participants who experienced an AE, are provided.\nAn overview of treatment-emergent adverse events (TEAEs) is provided, including counts and percentages of participants (and event counts).\nListings are presented specifically for TEAEs, treatment-emergent serious adverse events (TESAEs), and TEAEs leading to discontinuation of study drug."}, "[3]": {"test_system": "low-density lipoprotein cholesterol (LDL-C)", "assay": "Phase 2 study of obicetrapib and ezetimibe in mild dyslipidaemia: LDL-C by Friedewald formula", "type": "in vivo, human", "text": "as §1, §2\nLDL-C level was collected using the following 2 approaches: • 1. At each scheduled visit, LDL-C level was calculated using the Friedewald formula; and • 2. In addition, at baseline (Day 1) and at the end of the 8-week Treatment Period (Day 57), LDL-C was measured for all participants by preparative ultracentrifugation (PUC). Primary Efficacy Endpoint Primary analysis\nThe primary efficacy analysis of the percent change from Day 1 to Day 57 in LDL-C was performed using a mixed model for repeated measures (MMRM) approach. The analysis included fixed effects for treatment, visit, and treatment-by-visit interaction, along with a covariate of the baseline value as a continuous covariate. Randomization was stratified by categories of LDL-C value (<3.5 mmol/L [<135 mg/dL] or >3.5 mmol/L [≥135 mg/dL]) only to ensure similar distribution of LDL-C across all treatment groups; however, the MMRM model included the original scale of the LDL-C value as a continuous covariate. The Restricted Maximum Likelihood estimation approach was used with an unstructured covariance matrix. The least squares (LS) means, standard errors, and 2-sided 95% confidence intervals (CIs) for each treatment group, for the pairwise comparisons of the combination therapy, obicetrapib monotherapy, and ezetimibe monotherapy to placebo, and for the pairwise comparisons of combination therapy and obicetrapib monotherapy versus ezetimibe monotherapy are provided. The treatment comparison was performed using a 2-sided test at the α=0.05 level of significance.\nSimilar MMRM models were used for the exploratory efficacy endpoints. The proportion of participants at Day 57 that achieved LDL-C<2.6 mmol/L (<100 mg/dL), LDL-C<1.8 mmol/L (<70 mg/dL), and LDL-C<1.3 mmol/L (<50 mg/dL) were examined through Logistic Regression Models for binary variables with covariates of the treatment groups and the baseline variable.\nThis study was a placebo-controlled, double-blind, randomized Phase 2 study in participants with mild dyslipidemia to evaluate the efficacy, safety, and tolerability of obicetrapib and ezetimibe combination therapy. The primary efficacy endpoint was percent change from Day 1 to Day 57 in LDL-C for the obicetrapib 5 mg+ezetimibe 10 mg group compared to the placebo group."}, "[4]": {"conditions": "mITT population, mild dyslipidaemia, oral once daily, Day 57"}, "[5]": {"conditions": "mITT population, oral once daily, baseline to Day 57"}, "[6]": {"conditions": "torcetrapib dosed at 60 mg, Phase III clinical trials"}}, "note": "Where two headings read alike, the source gives them in different places.", "data": [{"smiles": "Cc1cc(C)c2c(c1)[C@@H](N(Cc1cc(C(F)(F)F)cc(C(F)(F)F)c1)c1nnn(C)n1)CCCN2C[C@H]1CC[C@H](C(=O)O)CC1", "note": "[Evacetrapib]", "values": [{"measurement": "Phase III clinical trial outcome (in words)", "setting": "[1]", "result": "failed to pass a futility interim analysis"}]}, {"smiles": "CCC(CC)CC1(C(=O)Nc2ccccc2SC(=O)C(C)C)CCCCC1", "note": "[Dalcetrapib]", "values": [{"measurement": "Effects on LDL-C concentrations (in words)", "setting": "LDL-C; dalcetrapib clinical trials", "result": "minimal effects"}, {"measurement": "Increase of HDL-C", "setting": "HDL-C; dalcetrapib clinical trials", "result": "30-40%"}]}, {"smiles": "O=C1[C@H](CC[C@H](O)c2ccc(F)cc2)[C@@H](c2ccc(O)cc2)N1c1ccc(F)cc1", "note": "[Ezetimibe 10 mg, (3R,4S)-1-(4-fluorophenyl)-3-[(3 S)-3-(4-fluorophenyl)-3-hydroxypropyl]-4-(4-hydroxyphenyl)azetidin-2-one]", "values": [{"measurement": "ApoB at Day 57, mean", "setting": "apolipoprotein B (ApoB); mild dyslipidaemia, Day 57", "result": 94.8, "unit": "mg/dL"}, {"measurement": "ApoB at Day 57, median", "setting": "apolipoprotein B (ApoB); mild dyslipidaemia, Day 57", "result": 94.0, "unit": "mg/dL"}, {"measurement": "Change from baseline to Day 57 in ApoB, mean", "setting": "apolipoprotein B (ApoB); baseline to Day 57", "result": -9.5, "unit": "mg/dL"}, {"measurement": "Change from baseline to Day 57 in ApoB, median", "setting": "apolipoprotein B (ApoB); baseline to Day 57", "result": -8.0, "unit": "mg/dL"}, {"measurement": "Percent change from baseline to Day 57 in ApoB, mean", "setting": "apolipoprotein B (ApoB); baseline to Day 57", "result": "−8.78", "unit": "%"}, {"measurement": "Percent change from baseline to Day 57 in ApoB, median", "setting": "apolipoprotein B (ApoB); baseline to Day 57", "result": "−8.90", "unit": "%"}, {"measurement": "Reduction of LDL-C levels when compared to placebo", "setting": "LDL-C; ezetimibe mono-therapy, patients with hypercholesterolemia", "result": "less than 20%"}, {"measurement": "Participants who experienced at least 1 TEAE, number", "setting": "[2]; Safety Population", "result": 8, "unit": "participants"}, {"measurement": "Participants who experienced at least 1 TEAE, percentage", "setting": "[2]; Safety Population", "result": 28.6, "unit": "%"}, {"measurement": "Participants who experienced at least 1 study drug-related TEAE, number", "setting": "[2]; Safety Population", "result": 3, "unit": "participants"}, {"measurement": "Participants who experienced at least 1 study drug-related TEAE, percentage", "setting": "[2]; Safety Population", "result": 10.7, "unit": "%"}, {"measurement": "Participants with a TEAE with a maximum severity of moderate, number", "setting": "[2]; Safety Population", "result": 4, "unit": "participants"}, {"measurement": "Participants with a TEAE with a maximum severity of moderate, percentage", "setting": "[2]; Safety Population", "result": 14.3, "unit": "%"}, {"measurement": "Participants with at least 1 TEAE that led to discontinuation of the study drug, number", "setting": "[2]; Safety Population", "result": 1, "unit": "participants"}, {"measurement": "Participants with at least 1 TEAE that led to discontinuation of the study drug, percentage", "setting": "[2]; Safety Population", "result": 3.6, "unit": "%"}, {"measurement": "Participants who experienced a TESAE / SAE, number", "setting": "[2]; hyperventilation and multiple fractures, both rated not related to the study drug", "result": "Two"}, {"measurement": "Participants who experienced a TESAE, percentage of participants overall", "setting": "[2]; percentage of participants overall", "result": 1.8, "unit": "%"}, {"measurement": "Participants who experienced a severe TEAE, number", "setting": "[2]; severe TEAE of multiple fractures", "result": "One"}, {"measurement": "Participants who experienced a severe TEAE, percentage of all participants", "setting": "[2]; severe TEAE of multiple fractures, percentage of all participants", "result": 0.9, "unit": "%"}, {"measurement": "Number of participants that achieved LDL-C<70 mg/dL by Friedewald formula", "setting": "[3]; Day 57", "result": 1, "unit": "participants"}, {"measurement": "Number of participants that achieved LDL-C<100 mg/dL by Friedewald formula", "setting": "[3]; Day 57", "result": 8, "unit": "participants"}, {"measurement": "Percentage of participants that achieved LDL-C<70 mg/dL by Friedewald formula", "setting": "[3]; Day 57", "result": 3.6, "unit": "%"}, {"measurement": "Percentage of participants that achieved LDL-C<100 mg/dL by Friedewald formula", "setting": "[3]; Day 57", "result": 28.6, "unit": "%"}, {"measurement": "LDL-C by Friedewald formula at Day 57, mean", "setting": "[3]; [4]", "result": 109.1, "unit": "mg/dL"}, {"measurement": "LDL-C by Friedewald formula at Day 57, median", "setting": "[3]; [4]", "result": 109.0, "unit": "mg/dL"}, {"measurement": "Change from baseline to Day 57 in LDL-C by Friedewald formula, mean", "setting": "[3]; [5]", "result": -18.0, "unit": "mg/dL"}, {"measurement": "Change from baseline to Day 57 in LDL-C by Friedewald formula, median", "setting": "[3]; [5]", "result": -19.0, "unit": "mg/dL"}, {"measurement": "Percent change from baseline to Day 57 in LDL-C by Friedewald formula, mean", "setting": "[3]; [5]", "result": "−12.69", "unit": "%"}, {"measurement": "Percent change from baseline to Day 57 in LDL-C by Friedewald formula, median", "setting": "[3]; [5]", "result": "−14.80", "unit": "%"}]}, {"smiles": "CCOC(=O)N1c2ccc(C(F)(F)F)cc2[C@@H](N(Cc2cc(C(F)(F)F)cc(C(F)(F)F)c2)C(=O)OC)C[C@H]1CC", "note": "[Torcetrapib]", "values": [{"measurement": "Safety concerns in clinical development (in words)", "setting": "[1]; torcetrapib, Phase III clinical trials", "result": "unexpected increase in cardiovascular events and death"}, {"measurement": "Decrease of LDL-C", "setting": "LDL-C; [6]", "result": 25, "unit": "%"}, {"measurement": "Increase of HDL-C", "setting": "HDL-C; [6]", "result": 72, "unit": "%"}]}, {"smiles": "COc1cc(F)c(C(C)C)cc1-c1ccc(C(F)(F)F)cc1CN1C(=O)O[C@H](c2cc(C(F)(F)F)cc(C(F)(F)F)c2)[C@@H]1C", "note": "[anacetrapib]", "values": [{"measurement": "Phase III clinical trial outcome (in words)", "setting": "[1]", "result": "reduced major cardiovascular events (MACE)"}]}]}
